In BindingDB's records for doi:10.1021/jm049237m (Wyeth Research, 2004):

Biological target: Proto-oncogene tyrosine-protein kinase Src (Homo sapiens, UniProt P12931)
Test: Homogeneous Time-resolved Fluorescence (HTRF) Assay
Conditions: pH 7.5; 37 °C
Method: Kinase assays were performed using the europium/APC detection format (LANCE, Perkin Elmer). HTRF is based on the proximity of europium cryptate (donor fluorophore)-labeled antiphosphotyrosine and streptavidin labeled with APC(allophycocyanin), which have been brought together by a binding reaction. When the two entities come into close proximity and upon excitation, energy transfer occurs and APC re-emits at 665 nm.

Sequence of Proto-oncogene tyrosine-protein kinase Src (P12931 2-536 limits assumed): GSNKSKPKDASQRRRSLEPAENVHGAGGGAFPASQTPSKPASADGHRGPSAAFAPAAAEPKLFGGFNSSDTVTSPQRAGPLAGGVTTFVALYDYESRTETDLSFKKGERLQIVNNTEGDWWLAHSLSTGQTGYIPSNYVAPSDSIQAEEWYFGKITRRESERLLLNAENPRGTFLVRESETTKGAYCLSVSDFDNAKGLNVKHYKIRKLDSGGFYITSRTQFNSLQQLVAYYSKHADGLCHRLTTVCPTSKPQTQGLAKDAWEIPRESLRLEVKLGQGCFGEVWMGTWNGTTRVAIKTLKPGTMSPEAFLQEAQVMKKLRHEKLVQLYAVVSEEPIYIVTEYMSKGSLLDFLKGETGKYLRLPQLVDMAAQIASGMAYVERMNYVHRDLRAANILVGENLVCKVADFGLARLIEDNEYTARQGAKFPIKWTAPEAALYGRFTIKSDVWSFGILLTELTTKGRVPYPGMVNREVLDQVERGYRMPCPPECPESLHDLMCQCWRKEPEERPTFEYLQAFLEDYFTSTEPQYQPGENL

For `COc1cc(Nc2c(C#N)cnc3cc(-c4ccccc4CN4CCN(C)CC4)sc23)c(Cl)cc1Cl` [7-[(2,4-dichloro-5-methoxyphenyl)amino]-2-{2-[(4-methylpiperazin-1-yl)methyl]phenyl}thieno[3,2-b]pyridine-6-carbonitrile], the IC50 was > 10 µM.
